Test results as given in patent publication US11767310B2, “Nicotinamide RIPK1 inhibitors” (AbbVie Inc., priority 2021, dated 2023).
Read-outs that look alike come from different tables or passages of the source.

Experiments:
Assay in all cases: Kinase binding screen
Details in all cases: read-out: Percent Control at 100 nM Compound Concentration
[1] = target: ABL1(Y253F)-pho sphorylated (Homo sapiens (Human), UniProt P00519, Y253F)
[2] = target: ABL1-phosphorylated (Homo sapiens (Human), UniProt P00519)
[3] = target: WNK3 (Homo sapiens (Human), UniProt Q9BYP7)
[4] = target: CDK4-cyclinD3 (Homo sapiens (Human), UniProt P11802)
CDK4-cyclinD3, sequence (P11802 whole entry): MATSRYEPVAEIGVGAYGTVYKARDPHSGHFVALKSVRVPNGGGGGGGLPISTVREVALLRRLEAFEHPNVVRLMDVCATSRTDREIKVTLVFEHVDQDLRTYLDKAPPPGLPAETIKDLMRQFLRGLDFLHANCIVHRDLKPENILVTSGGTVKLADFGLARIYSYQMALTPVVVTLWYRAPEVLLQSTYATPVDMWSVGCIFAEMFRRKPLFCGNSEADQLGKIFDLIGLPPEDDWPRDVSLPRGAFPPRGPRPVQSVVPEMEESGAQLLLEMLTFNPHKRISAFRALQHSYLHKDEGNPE
CDK4-cyclinD3, sequence (P30281 whole entry partner): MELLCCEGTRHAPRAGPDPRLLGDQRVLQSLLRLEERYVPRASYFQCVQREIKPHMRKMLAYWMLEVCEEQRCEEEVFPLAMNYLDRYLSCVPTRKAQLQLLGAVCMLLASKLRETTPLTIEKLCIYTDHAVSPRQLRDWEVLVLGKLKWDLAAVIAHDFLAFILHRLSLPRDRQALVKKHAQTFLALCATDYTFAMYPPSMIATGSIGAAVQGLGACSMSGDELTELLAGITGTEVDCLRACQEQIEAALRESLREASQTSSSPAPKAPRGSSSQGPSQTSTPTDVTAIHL

[5] = target: PRKD1 (Homo sapiens (Human), UniProt Q15139)
[6] = target: TIE1 (Homo sapiens (Human), UniProt P35590)
[7] = target: EGFR(L747-E749del, A750P) (Homo sapiens (Human), UniProt P00533, A750P/DEL747-749)
EGFR(L747-E749del, A750P), sequence (P00533 other isoform, or with tags, fused parts or gaps A750P/del L747-E749): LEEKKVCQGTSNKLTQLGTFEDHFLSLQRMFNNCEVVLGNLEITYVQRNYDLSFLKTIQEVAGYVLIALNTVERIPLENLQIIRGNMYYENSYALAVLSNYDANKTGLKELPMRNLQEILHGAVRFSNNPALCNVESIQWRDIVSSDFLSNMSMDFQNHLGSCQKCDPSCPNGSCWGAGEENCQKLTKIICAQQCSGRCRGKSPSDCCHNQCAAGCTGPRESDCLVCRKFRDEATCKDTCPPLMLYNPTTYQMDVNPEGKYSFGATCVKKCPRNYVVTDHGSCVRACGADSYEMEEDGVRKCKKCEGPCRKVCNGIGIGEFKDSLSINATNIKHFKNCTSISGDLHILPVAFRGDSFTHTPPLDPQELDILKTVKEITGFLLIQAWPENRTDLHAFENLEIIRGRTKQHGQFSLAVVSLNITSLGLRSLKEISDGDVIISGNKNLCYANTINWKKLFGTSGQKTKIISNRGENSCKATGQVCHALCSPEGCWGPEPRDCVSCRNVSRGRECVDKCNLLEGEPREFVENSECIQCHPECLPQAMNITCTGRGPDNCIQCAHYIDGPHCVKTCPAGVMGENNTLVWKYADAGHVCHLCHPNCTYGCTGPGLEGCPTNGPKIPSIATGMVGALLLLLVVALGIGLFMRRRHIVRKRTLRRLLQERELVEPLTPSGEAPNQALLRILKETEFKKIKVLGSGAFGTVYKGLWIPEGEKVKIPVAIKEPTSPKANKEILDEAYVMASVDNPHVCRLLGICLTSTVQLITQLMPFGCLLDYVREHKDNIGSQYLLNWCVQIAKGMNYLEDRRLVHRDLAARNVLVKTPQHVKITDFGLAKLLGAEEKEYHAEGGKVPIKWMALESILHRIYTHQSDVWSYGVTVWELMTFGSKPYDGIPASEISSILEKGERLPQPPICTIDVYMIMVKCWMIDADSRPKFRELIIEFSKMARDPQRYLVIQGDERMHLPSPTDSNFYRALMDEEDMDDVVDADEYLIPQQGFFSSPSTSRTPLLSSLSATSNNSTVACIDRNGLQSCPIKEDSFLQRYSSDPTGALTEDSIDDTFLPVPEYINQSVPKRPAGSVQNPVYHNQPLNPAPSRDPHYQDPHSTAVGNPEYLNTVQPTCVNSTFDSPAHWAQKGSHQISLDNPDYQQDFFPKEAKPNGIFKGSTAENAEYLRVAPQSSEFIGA

[8] = target: EPHA4 (Homo sapiens (Human), UniProt P54764)
[9] = target: PFTK1 (Homo sapiens (Human), UniProt O94921)
[10] = target: EPHA3 (Homo sapiens (Human), UniProt P29320)
[11] = target: EPHB6 (Homo sapiens (Human), UniProt O15197)
[12] = target: KIT-autoinhibited (Homo sapiens (Human), UniProt P10721)
[13] = target: CLK3 (Homo sapiens (Human), UniProt P49761)
[14] = target: PRKG2 (Homo sapiens (Human), UniProt Q13237)
[15] = target: MRCKB (Homo sapiens (Human), UniProt Q9Y5S2)
[16] = target: RSK2(Kin.Dom.2-C-terminal) (Homo sapiens (Human), UniProt P51812)
[17] = target: CAMK4 (Homo sapiens (Human), UniProt Q16566)
[18] = target: PIK3CB (Homo sapiens (Human), UniProt P42338)
PIK3CB, sequence (P42338 whole entry): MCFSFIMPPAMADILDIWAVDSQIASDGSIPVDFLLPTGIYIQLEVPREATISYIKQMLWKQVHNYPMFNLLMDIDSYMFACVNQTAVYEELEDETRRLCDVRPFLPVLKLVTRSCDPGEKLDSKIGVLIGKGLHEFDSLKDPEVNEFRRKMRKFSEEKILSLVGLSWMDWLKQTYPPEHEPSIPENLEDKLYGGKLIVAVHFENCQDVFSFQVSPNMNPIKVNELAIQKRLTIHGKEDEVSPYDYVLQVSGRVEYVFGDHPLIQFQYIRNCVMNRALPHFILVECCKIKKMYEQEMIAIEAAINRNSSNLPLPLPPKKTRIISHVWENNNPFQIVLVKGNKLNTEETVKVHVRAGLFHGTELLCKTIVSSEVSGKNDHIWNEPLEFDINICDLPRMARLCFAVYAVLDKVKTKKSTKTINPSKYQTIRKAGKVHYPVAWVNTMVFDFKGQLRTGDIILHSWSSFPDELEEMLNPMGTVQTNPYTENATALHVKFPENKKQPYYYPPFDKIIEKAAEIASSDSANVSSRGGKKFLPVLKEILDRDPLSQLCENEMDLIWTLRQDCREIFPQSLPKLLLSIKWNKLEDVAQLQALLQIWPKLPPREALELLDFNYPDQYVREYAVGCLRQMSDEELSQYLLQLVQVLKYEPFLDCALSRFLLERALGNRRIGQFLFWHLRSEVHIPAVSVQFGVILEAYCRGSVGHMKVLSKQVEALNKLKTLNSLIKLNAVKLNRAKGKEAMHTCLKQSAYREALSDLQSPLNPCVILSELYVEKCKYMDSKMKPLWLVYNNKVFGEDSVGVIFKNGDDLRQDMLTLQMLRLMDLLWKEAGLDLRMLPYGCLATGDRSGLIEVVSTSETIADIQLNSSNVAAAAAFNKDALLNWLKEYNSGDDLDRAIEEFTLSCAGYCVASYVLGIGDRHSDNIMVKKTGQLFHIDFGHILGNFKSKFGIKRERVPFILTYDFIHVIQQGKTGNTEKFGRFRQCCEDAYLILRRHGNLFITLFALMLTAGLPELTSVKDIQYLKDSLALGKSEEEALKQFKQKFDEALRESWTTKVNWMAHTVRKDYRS

[19] = target: CSF1R (Homo sapiens (Human), UniProt P07333)
[20] = target: ANKK1 (Homo sapiens (Human), UniProt Q8NFD2)
[21] = target: ROCK2 (Homo sapiens (Human), UniProt O75116)
ROCK2, sequence (O75116 whole entry): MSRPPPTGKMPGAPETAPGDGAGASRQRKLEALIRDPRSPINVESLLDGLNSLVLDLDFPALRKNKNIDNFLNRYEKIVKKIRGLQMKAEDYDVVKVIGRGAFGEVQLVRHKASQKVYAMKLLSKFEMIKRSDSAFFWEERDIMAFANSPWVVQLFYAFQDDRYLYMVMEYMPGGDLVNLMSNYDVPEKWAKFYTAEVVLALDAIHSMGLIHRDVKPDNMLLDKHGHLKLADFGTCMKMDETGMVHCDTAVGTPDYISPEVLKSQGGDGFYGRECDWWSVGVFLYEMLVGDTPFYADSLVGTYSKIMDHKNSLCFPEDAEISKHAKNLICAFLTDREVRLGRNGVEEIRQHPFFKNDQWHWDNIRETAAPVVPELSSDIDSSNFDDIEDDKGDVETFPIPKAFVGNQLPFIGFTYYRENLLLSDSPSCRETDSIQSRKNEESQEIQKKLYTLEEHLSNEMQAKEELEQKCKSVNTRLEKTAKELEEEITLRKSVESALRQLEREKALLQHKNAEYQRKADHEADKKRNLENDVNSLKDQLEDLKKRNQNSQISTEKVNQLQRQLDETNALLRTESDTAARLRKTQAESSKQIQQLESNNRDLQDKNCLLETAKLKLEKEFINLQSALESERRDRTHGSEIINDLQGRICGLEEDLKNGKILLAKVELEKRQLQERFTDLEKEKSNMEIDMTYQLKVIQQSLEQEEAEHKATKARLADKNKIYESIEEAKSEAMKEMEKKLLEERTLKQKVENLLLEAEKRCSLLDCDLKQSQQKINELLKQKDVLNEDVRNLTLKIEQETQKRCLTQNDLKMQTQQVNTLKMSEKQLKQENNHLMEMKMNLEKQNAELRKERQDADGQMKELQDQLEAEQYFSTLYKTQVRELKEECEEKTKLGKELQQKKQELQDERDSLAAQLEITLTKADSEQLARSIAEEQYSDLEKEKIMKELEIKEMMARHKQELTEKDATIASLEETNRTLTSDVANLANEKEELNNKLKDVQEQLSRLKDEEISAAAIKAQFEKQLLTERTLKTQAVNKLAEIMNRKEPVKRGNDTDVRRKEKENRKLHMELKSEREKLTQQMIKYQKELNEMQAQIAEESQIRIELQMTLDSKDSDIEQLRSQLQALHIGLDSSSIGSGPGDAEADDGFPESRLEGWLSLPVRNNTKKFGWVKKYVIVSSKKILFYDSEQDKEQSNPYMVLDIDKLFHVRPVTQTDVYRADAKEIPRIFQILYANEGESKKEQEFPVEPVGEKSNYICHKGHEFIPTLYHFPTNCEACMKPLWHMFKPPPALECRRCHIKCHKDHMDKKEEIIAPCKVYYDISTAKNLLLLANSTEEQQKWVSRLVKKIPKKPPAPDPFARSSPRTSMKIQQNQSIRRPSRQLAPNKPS

[22] = target: CDK4 (Homo sapiens (Human), UniProt P11802)
CDK4, sequence (P11802 whole entry): as the sequence (P11802 whole entry) above

[23] = target: NEK2 (Homo sapiens (Human), UniProt P51955)
[24] = target: KIT(V559D,T670I) (Homo sapiens (Human), UniProt P10721, T670I/V559D)
[25] = target: DDR2 (Homo sapiens (Human), UniProt Q16832)
[26] = target: WNK2 (Homo sapiens (Human), UniProt Q9Y3S1)
[27] = target: GRK4 (Homo sapiens (Human), UniProt P32298)
GRK4, sequence (P32298 whole entry): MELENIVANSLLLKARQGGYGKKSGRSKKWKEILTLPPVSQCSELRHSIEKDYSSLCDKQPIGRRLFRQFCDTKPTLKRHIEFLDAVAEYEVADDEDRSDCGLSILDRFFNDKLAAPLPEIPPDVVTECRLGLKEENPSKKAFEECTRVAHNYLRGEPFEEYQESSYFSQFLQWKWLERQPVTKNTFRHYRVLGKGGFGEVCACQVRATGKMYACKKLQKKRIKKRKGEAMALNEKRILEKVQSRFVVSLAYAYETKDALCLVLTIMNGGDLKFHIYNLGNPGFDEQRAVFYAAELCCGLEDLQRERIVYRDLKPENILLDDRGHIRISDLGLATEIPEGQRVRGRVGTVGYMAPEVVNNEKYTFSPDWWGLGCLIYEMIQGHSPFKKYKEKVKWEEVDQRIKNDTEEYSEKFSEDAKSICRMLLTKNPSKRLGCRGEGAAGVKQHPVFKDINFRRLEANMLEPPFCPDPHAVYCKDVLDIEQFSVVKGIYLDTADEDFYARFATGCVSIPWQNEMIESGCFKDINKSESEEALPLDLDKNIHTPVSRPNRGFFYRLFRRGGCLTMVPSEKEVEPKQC

[28] = target: RIPK4 (Homo sapiens (Human), UniProt P57078)

CN(C[C@@H](O)Cc1ccccc1)C(=O)c1cncc(C#Cc2cnn(C(F)F)c2)c1 [Example 2, (S)-5-((1-(difluoromethyl)-1H-pyrazol-4-yl)ethynyl)-N-(2-hydroxy-3-phenylpropyl)-N-methylnicotinamide]
remaining activity at 0.1 µM ([1]; ABL1(Y253F)-pho sphorylated): 100%
remaining activity at 0.1 µM ([2]; ABL1-phosphorylated): 79%
remaining activity at 0.1 µM ([3]; WNK3): 100%
remaining activity at 0.1 µM ([4]; CDK4-cyclinD3): 100%
remaining activity at 0.1 µM ([5]; PRKD1): 100%
remaining activity at 0.1 µM ([6]; TIE1): 100%
remaining activity at 0.1 µM ([7]; EGFR(L747-E749del, A750P)): 100%
remaining activity at 0.1 µM ([8]; EPHA4): 97%
remaining activity at 0.1 µM ([9]; PFTK1): 100%
remaining activity at 0.1 µM ([10]; EPHA3): 100%
remaining activity at 0.1 µM ([11]; EPHB6): 100%
remaining activity at 0.1 µM ([12]; KIT-autoinhibited): 94%
remaining activity at 0.1 µM ([13]; CLK3): 97%
remaining activity at 0.1 µM ([14]; PRKG2): 100%
remaining activity at 0.1 µM ([15]; MRCKB): 95%
remaining activity at 0.1 µM ([16]; RSK2(Kin.Dom.2-C-terminal)): 100%
remaining activity at 0.1 µM ([17]; CAMK4): 100%
remaining activity at 0.1 µM ([18]; PIK3CB): 100%
remaining activity at 0.1 µM ([19]; CSF1R): 100%
remaining activity at 0.1 µM ([20]; ANKK1): 100%
remaining activity at 0.1 µM ([21]; ROCK2): 100%
remaining activity at 0.1 µM ([22]; CDK4): 100%
remaining activity at 0.1 µM ([23]; NEK2): 100%
remaining activity at 0.1 µM ([24]; KIT(V559D,T670I)): 97%
remaining activity at 0.1 µM ([25]; DDR2): 100%
remaining activity at 0.1 µM ([26]; WNK2): 100%
remaining activity at 0.1 µM ([27]; GRK4): 100%
remaining activity at 0.1 µM ([28]; RIPK4): 100%

CN(C[C@H](Cc1ccccc1)OP(=O)(O)O)C(=O)c1cncc(C#Cc2cnn(C(F)F)c2)c1 [Example 19, (S)-1-(5-((1-(difluoromethyl)-1H-pyrazol-4-yl)ethynyl)-N-methylnicotinamido)-3-phenylpropan-2-yl dihydrogen phosphate]
remaining activity at 0.1 µM [1]: 100%
remaining activity at 0.1 µM [2]: 78%
remaining activity at 0.1 µM [3]: 100%
remaining activity at 0.1 µM [4]: 100%
remaining activity at 0.1 µM [5]: 100%
remaining activity at 0.1 µM [6]: 100%
remaining activity at 0.1 µM [7]: 84%
remaining activity at 0.1 µM [8]: 96%
remaining activity at 0.1 µM [9]: 100%
remaining activity at 0.1 µM [10]: 100%
remaining activity at 0.1 µM [11]: 100%
remaining activity at 0.1 µM [12]: 94%
remaining activity at 0.1 µM [13]: 93%
remaining activity at 0.1 µM [14]: 97%
remaining activity at 0.1 µM [15]: 100%
remaining activity at 0.1 µM [16]: 100%
remaining activity at 0.1 µM [17]: 100%
remaining activity at 0.1 µM [18]: 95%
remaining activity at 0.1 µM [19]: 100%
remaining activity at 0.1 µM [20]: 100%
remaining activity at 0.1 µM [21]: 100%
remaining activity at 0.1 µM [22]: 93%
remaining activity at 0.1 µM [23]: 100%
remaining activity at 0.1 µM [24]: 100%
remaining activity at 0.1 µM [25]: 100%
remaining activity at 0.1 µM [26]: 100%
remaining activity at 0.1 µM [27]: 100%
remaining activity at 0.1 µM [28]: 100%
